Earlier results as cited in patent US5776505A (Bayer Aktiengesellschaft, priority 1995, dated 1998).

Details: cross-over study; with magnesium hydroxide

## CC(C)Cc1ccc(C(C)C(=O)O)cc1 (stereo not shown) [ibuprofen]
  plasma concentration as a result of addition of magnesium hydroxide: higher plasma concentration
